# Measured values: patent publication US7358057B2, “QM-7 and QT-6 cells transfected with mutant cell surface expressed channel receptors and assays using the transfected cells” (Memory Pharmaceuticals Corporation, priority 2002, dated 2008)
# Like-named read-outs stand apart in the source and are kept apart here.
# Experiments:
# [1] = molecular target: T1, L270T mutant α7 receptor (Homo sapiens, UniProt P36544, L270T); assay: Real time, high throughput Ca++ imaging assay using FLIPR, QM-7 cells transiently transfected with L270T mutant α7; assay type: cell-based
# T1 construct: expressed in transfected cells; host or cells: QM-7 cells (quail), transient transfection with Lipofectamine PLUS
# Description: (§1) QM-7 cells were transiently transfected with either wild type or L 270T mutant α7 receptor with Lipofectamine PLUS reagent (Invitrogen), in 175 cm^2 flasks. Twenty four hours after the transfection, the cells were collected and re-seeded into a 96-well plate at a density of 40,000 cells/well. Twenty four hours after re-seeding, the cell were incubated with Ca^++ sensitive dye Fluo 3, washed and stimulated with the selective alpha 7 agonist GTS-21. Cellular Ca^++ signal was detected with FLIPR, quantified and plotted against the concentration of GTS-21.
# [2] = molecular target: T2, wild type α7 receptor (Homo sapiens, UniProt P36544); assay: Real time, high throughput Ca++ imaging assay using FLIPR, QM-7 cells transiently transfected with wild type α7; assay type: cell-based; details: QM-7 cells transiently transfected with wild type human α7, Fluo 3 dye, FIG. 1
# T2 construct: expressed in transfected cells; host or cells: QM-7 cells (quail), transient transfection with Lipofectamine PLUS
# Description: as §1
# [3] = QM-7 cells transiently transfected with human L270T α7, Fluo 3 dye, FLIPR, FIG. 1
# T1 sequence (P36544 23-502 L270T): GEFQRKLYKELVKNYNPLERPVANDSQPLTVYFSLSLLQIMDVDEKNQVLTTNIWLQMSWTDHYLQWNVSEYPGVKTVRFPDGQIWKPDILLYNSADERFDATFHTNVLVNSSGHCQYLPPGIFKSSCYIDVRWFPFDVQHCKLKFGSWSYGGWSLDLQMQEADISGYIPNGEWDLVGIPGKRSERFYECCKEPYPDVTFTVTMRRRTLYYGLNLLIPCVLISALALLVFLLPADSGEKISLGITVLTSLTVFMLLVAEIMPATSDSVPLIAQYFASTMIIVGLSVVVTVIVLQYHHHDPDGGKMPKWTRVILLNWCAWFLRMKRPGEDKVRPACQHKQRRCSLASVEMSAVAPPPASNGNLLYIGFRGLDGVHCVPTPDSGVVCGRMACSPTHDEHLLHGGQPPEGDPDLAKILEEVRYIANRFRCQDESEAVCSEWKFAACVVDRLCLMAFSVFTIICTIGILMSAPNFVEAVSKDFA
# T2 sequence (P36544 23-502): as the sequence (P36544 23-502 L270T) above, with T248L counted along it
smiles,measurement,setting,value
COc1ccc(/C=C2\CCCN=C2c2cccnc2)c(OC)c1 [GTS-21],Cellular Ca++ signal on stimulation,[1]; [3],dose-dependent increase of Ca^++ signal
same,Concentration at which the Ca++ signal saturated,[1]; [3],10 µM
same,Cellular Ca++ signal on stimulation,[2],failed to give a meaningful signal
"CCN1C[C@]2(COC(=O)c3ccccc3N3C(=O)C[C@H](C)C3=O)CC[C@H](OC)[C@@]34[C@@H]5C[C@H]6[C@H](OC)[C@@H]5[C@](O)(C[C@@H]6OC)[C@@](O)([C@@H](OC)[C@H]23)[C@@H]14 [MLA, Methyllycaconitine]",Attenuation of signals from epibatidine stimulation,[1],attenuated
Clc1ccc(C2CC3CCC2N3)cn1 (stereo not drawn) [epibatidine],Responsiveness of cells to agonist (Ca++ signal),[1]; QM-7 cells transiently transfected with the mutant,responsive
CN1CCCC1c1cccnc1 (stereo not drawn) [nicotine],Responsiveness of cells to agonist (Ca++ signal),[1],responsive
